Results from patent US7642277B2, “Non-nucleoside reverse transcriptase inhibitors” (Boehringer Ingelheim International GmbH, priority 2002, dated 2010).
Where two headings read alike, the source gives them in different places.

What was measured:
[1] = system: HIV-1 (wild type); test: P24 cellular assay (EC50), data identified with * in Table 9, wild type; type: cell-based; details: Human immunodeficiency virus 1
Text: (§1) P24 Cellular Assay (EC50) (Data Identified with * in Table 9).
(§2) The p24 assay is as described in WO 01/96338, the contents of which are herein incorporated by reference.
(§3) The results are listed in Table 9 as IC50(nM) and EC50 (nM).
(§4) Table legend: A=>100; B=100-50; C=<50; NT=not tested

[2] = system: HIV-1 resistant mutant K103N/Y181C; test: P24 cellular assay (EC50), data identified with * in Table 9, resistant mutant; type: cell-based; details: Human immunodeficiency virus 1, read-out: EC50 K103N/Y181C
Text: as §1, §2, §3, §4

[3] = target: T1, HIV-1 RT enzyme (wild type) (Human immunodeficiency virus type 1 group M subtype B, UniProt P04585); test: Reverse transcriptase (RT) enzymatic assay (IC50), PicoGreen fluorescence, wild type; type: biochemical
T1 construct: The reverse transcriptase (RT) enzyme assay has been adapted to a 96-well microtiter plate format
Procedure, shortened: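 Enzyme at ≈10 nM in 50 mM Tris/HCl pH 7.8 with 60 mM NaCl, 2 mM MgCl2, 6 mM DTT, 2 mM GSH, 0.02% Chaps; 15 min preincubation with compound at room temperature, then substrate added and run 50 min at 37 °C. EDTA quench; product DNA read by PicoGreen fluorescence.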

[4] = target: T2, HIV-1 RT resistant mutant K103N/Y181C (Human immunodeficiency virus type 1 group M subtype B, UniProt P04585, K690N/Y768C); test: Reverse transcriptase (RT) enzymatic assay (IC50), PicoGreen fluorescence, resistant mutant; type: biochemical
T2 construct: The reverse transcriptase (RT) enzyme assay has been adapted to a 96-well microtiter plate format

[5] = RT enzymatic assay, wild type, read-out: IC50 WT

Row | SMILES | EC50 [1] [µM] | EC50 [2] [µM] | IC50 [3] [µM] | IC50 [4] [µM] | IC50 [3, 5] [µM]
1 | O=C(CSc1nnnn1-c1cccc2ccccc12)Nc1ccccc1[N+](=O)[O-] [Entry 101, 2-{{1-(1-Naphthalenyl)-1H-tetrazol-5-yl}thio}-N-(2-nitrophenyl)acetamide] | < 0.05 | > 0.1 | – | – | –
2 | O=C(CSc1nnnn1-c1ccc2ccccc2c1)Nc1ccccc1[N+](=O)[O-] [Entry 103] | < 0.05 | > 0.1 | < 0.05 | > 0.1 | –
3 | O=C(CSc1nnnn1-c1cccc2c1CCCC2)Nc1ccccc1[N+](=O)[O-] [Entry 104] | < 0.05 | > 0.1 | < 0.05 | > 0.1 | –
4 | O=C(CSc1nnnn1-c1ccc2c(c1)CCC2)Nc1ccccc1[N+](=O)[O-] [Entry 105] | < 0.05 | > 0.1 | < 0.05 | > 0.1 | –
5 | Cc1ccccc1-n1nnnc1SCC(=O)Nc1ccccc1[N+](=O)[O-] [Entry 109] | < 0.05 | > 0.1 | 0.05 to 0.1 | > 0.1 | –
6 | O=C(CSc1nnnn1-c1ccccc1C(F)(F)F)Nc1ccccc1[N+](=O)[O-] [Entry 111] | < 0.05 | > 0.1 | 0.05 to 0.1 | > 0.1 | –
7 | O=C(CSc1nnnn1-c1ccccc1Cl)Nc1ccccc1[N+](=O)[O-] [Entry 114] | < 0.05 | > 0.1 | < 0.05 | > 0.1 | –
8 | COc1ccccc1-n1nnnc1SCC(=O)Nc1ccccc1[N+](=O)[O-] [Entry 115] | < 0.05 | > 0.1 | 0.05 to 0.1 | > 0.1 | –
9 | COC(=O)c1ccccc1-n1nnnc1SCC(=O)Nc1ccccc1[N+](=O)[O-] [Entry 117] | – | > 0.1 | – | > 0.1 | < 0.05
10 | Cc1cccc(-n2nnnc2SCC(=O)Nc2ccccc2[N+](=O)[O-])c1 [Entry 118] | < 0.05 | > 0.1 | 0.05 to 0.1 | > 0.1 | –
11 | Cc1cccc(-n2nnnc2SCC(=O)Nc2ccccc2[N+](=O)[O-])c1C [Entry 122] | < 0.05 | > 0.1 | < 0.05 | > 0.1 | –
12 | O=C(CSc1nnnn1-c1cccc(Cl)c1Cl)Nc1ccccc1[N+](=O)[O-] [Entry 123] | – | 0.05 to 0.1 | – | > 0.1 | < 0.05
13 | Cc1c(Cl)cccc1-n1nnnc1SCC(=O)Nc1ccccc1[N+](=O)[O-] [Entry 124] | < 0.05 | 0.05 to 0.1 | < 0.05 | > 0.1 | –
14 | Cc1ccc(-n2nnnc2SCC(=O)Nc2ccccc2[N+](=O)[O-])c(C)c1 [Entry 125] | < 0.05 | > 0.1 | < 0.05 | > 0.1 | –
15 | COc1ccc(-n2nnnc2SCC(=O)Nc2ccccc2[N+](=O)[O-])c(C)c1 [Entry 127] | < 0.05 | > 0.1 | < 0.05 | > 0.1 | –
16 | Cc1cc(Cl)ccc1-n1nnnc1SCC(=O)Nc1ccccc1[N+](=O)[O-] [Entry 128] | < 0.05 | > 0.1 | > 0.1 | > 0.1 | –

Row | SMILES | EC50 [1] [µM] | EC50 [2] [µM] | IC50 [3] [µM] | IC50 [4] [µM] | IC50 [3, 5] [µM]
17 | Cc1ccc(-n2nnnc2SCC(=O)Nc2ccccc2[N+](=O)[O-])c(Cl)c1 [Entry 129] | < 0.05 | < 0.05 | < 0.05 | > 0.1 | –
18 | COc1cc(-n2nnnc2SCC(=O)Nc2ccccc2[N+](=O)[O-])c(Cl)cc1Cl [Entry 133] | < 0.05 | > 0.1 | < 0.05 | > 0.1 | –
19 | CC(C)Oc1cc(-n2nnnc2SCC(=O)Nc2ccccc2[N+](=O)[O-])c(Cl)cc1Cl [Entry 134] | < 0.05 | > 0.1 | < 0.05 | > 0.1 | –
20 | Cc1ccc(F)cc1-n1nnnc1SCC(=O)Nc1ccccc1[N+](=O)[O-] [Entry 135] | < 0.05 | > 0.1 | < 0.05 | > 0.1 | –
21 | COc1ccc(Cl)cc1-n1nnnc1SCC(=O)Nc1ccccc1[N+](=O)[O-] [Entry 136] | < 0.05 | > 0.1 | 0.05 to 0.1 | > 0.1 | –
22 | Cc1cc(Br)cc(C)c1-n1nnnc1SCC(=O)Nc1ccccc1[N+](=O)[O-] [Entry 140] | < 0.05 | < 0.05 | < 0.05 | > 0.1 | –
23 | Cc1cc(C)c(-n2nnnc2SCC(=O)Nc2ccccc2[N+](=O)[O-])c(C)c1 [Entry 141] | < 0.05 | < 0.05 | > 0.1 | > 0.1 | –
24 | O=C(CSc1nnnn1-c1cccc2ccccc12)Nc1ccccc1I [Entry 210] | < 0.05 | > 0.1 | 0.05 to 0.1 | – | –
25 | O=C(CSc1nnnn1-c1cccc2ccccc12)Nc1cccc(F)c1F [Entry 230] | 0.05 to 0.1 | > 0.1 | 0.05 to 0.1 | – | –
26 | O=C(CSc1nnnn1-c1cccc2ccccc12)Nc1ccc(Cl)cc1Cl [Entry 234] | 0.05 to 0.1 | > 0.1 | 0.05 to 0.1 | – | –
27 | O=C(CSc1nnnn1-c1cccc2ccccc12)Nc1ccc(C(=O)O)cc1Cl [Entry 236] | > 0.1 | > 0.1 | 0.05 to 0.1 | > 0.1 | –
28 | N#Cc1ccc(NC(=O)CSc2nnnn2-c2cccc3ccccc23)c(Cl)c1 [Entry 239] | < 0.05 | > 0.1 | 0.05 to 0.1 | > 0.1 | –
29 | CC(Sc1nnnn1-c1cccc2ccccc12)C(=O)Nc1ccccc1[N+](=O)[O-] (stereo not drawn) [Entry 301] | < 0.05 | > 0.1 | 0.05 to 0.1 | > 0.1 | –
30 | O=C(CSc1nncn1-c1cccc2ccccc12)Nc1ccccc1[N+](=O)[O-] [Entry 402, 2-{{4-(1-Naphthalenyl)-4H-1,2,4-triazol-3-yl}thio}-N-(2-nitrophenyl)acetamide] | < 0.05 | > 0.1 | – | > 0.1 | 0.05 to 0.1
31 | Cc1cc(C)c(-n2nnnc2SCC(=O)Nc2ccccc2Cl)c(C)c1 [Entry 421] | < 0.05 | > 0.1 | – | > 0.1 | < 0.05
